Data from patent publication US20150111852A1, “1-Di(sec-butyl)-phosphinoyl-pentane (dapa-2-5) as a topical agent” (priority 2013, published 2015).
≈ marks a conversion by molar mass, not a printed value. Where “and” joins values, the source holds several entries; their conditions need not be identical. Equal values may be shown once. Entries after “also recorded” stand apart in the source; their conditions may differ.

What was measured:
oropharynx = assay: Sensory effects and cold discomfort of compounds given orally in ODT (general evaluation); assay type: in vivo, human; settings: for distribution of the sensation (throat vs chest): oral ODT
Description: The correlation between a chemical's potency at the TRPM8 receptor (measured by the EC50 μM) and potency to evoke sensory events in the oropharynx is complex.
When a test compound is applied to non-keratinizng bodily surfaces (e.g., oropharyngeal surface), it is possible to characterize the resulting sensations.
The sensations are akin to rapid drinking of cold water mixed and equilibrated with ice chips. The intense cold is further accentuated if the drink is acidified, for example, with lemonade. The sensations of dull and intense cold on the surface of the oropharynx can be described as painful, uncomfortable, and aversive. The term “icy cold” is used to describe these adverse intense cold sensations.
Together, these three types of sensations—“icy cold”, coldness in the chest, and systemic coldness—is termed “cold discomfort”. […] The ideal agent must have a circumscribed site of action, and the intensity of the sensation should not cause “icy cold”, coldness in the chest, or systemic chills.

mouth and throat = assay: Sensory activity of ODT-C on volunteers (double-blind, modified ASHRAE scale); assay type: in vivo, human; settings: for ODT-C test results (sensation and taste in words) / duration of cooling effect: 1.2 to 1.5 mg per ODT; for ODT-C test results (sensation and taste in words): 4 volunteers; for quality of heat abstraction sensation (peak intensity) / duration of cooling effect: ODT-C; for ASHRAE equivalent: peak heat abstraction sensation, modified ASHRAE scale neutral [0] to icy cold [-4]
Description: ODT-C. More experiments were conducted to find a smaller tablet, in the range of 40 to 60 mg, with a disintegration of <10 sec. These paraemters might achieve a better pharmacological effect. ODT-B was 100 mg in size and disintegrated in <20 sec. […] For example, to 1.5 g of DAPA-2-5 is added 1.5 g of absolute ethanol, followed by 2.0 g of Neusilin US2. The mixture is shaken or mixed in a Speedmixer at 500 rpm for 1 min. The sample is placed under a heat source and about 2 hr later, the sample size is re-weighed with the expectation that the ethanol has been evaporated and the sample now weights 3.5 g. This powder is free-flowing. • b. a sample of maltitol powder is prepared (Maltisorb® P200 from Roquette). • c. a sample of Prosolv® EasyTab is prepared (JRS Pharma, Rosenburg, Germany). • d. a blend of a. [2.80 g], b. [15.73 g] and c. [31.46 g] is prepared to make 1000 ODT tablets, each weighing 50 mg and containing 1.2 mg of DAPA-2-5. • e. the blend is first shaken by hand, then placed for 2 min in a SpeedMixer at 500 rpm. The blend is poured into the funnel of a New Single Punch Tablet Press Pill Making Machine Maker TDP-1-5 [available from Amazon.com] and the extruded tablets are collected.
ODT-C, described in Study 2, were tested for sensory properties on 4 volunteers, with at least 3 trials per compound and at 1.2 to 1.5 mg per ODT. The ODT was placed on the mid-line posterior dorsal surface of the tongue and sensory effects recorded for 30 min on a standardized form […]. The ODT were coded and administered on a double-blind basis. A modified ASHRAE scale of neutral, slightly cool [-1], cool [-2], cold [-3], and icy cold [-4] was used to rank the peak heat abstraction sensations in the mouth and throat. Other perceived effects, e.g. taste and duration, were also noted.

[1] = test system: 0.1 N HCl-induced swallowing, pharyngolaryngeal region; assay: Acid-induced swallowing movements in the anesthetized rat; assay type: in vivo; settings: for Relative Potency (suppression of swallowing): DAPA-2-5 = 1.0
Source text: A principal endogenous irritant in the linings of the upper aerodigestive tract is hydrochloric acid. Acid stimulations of the mucosa of the pharynx will elicit reflex swallowing. […] In a rat animal model, solutions of organic acids such as acetic acid and citric acid were effective in eliciting swallowing [Kajii et al., Sour taste stimulation facilitates reflex swallowing from the pharynx and larynx in the rat Physiology & Behavior 77: 321-325, 2002]. In the present discovery, the method for measuring sensory responses to acid was adapted for screening agents that might suppress the sensitivity to hydrochloric acid. Agents that suppress the acid challenge may then have utility in relieving the discomfort of heartburn.
Experiments were conducted at the Pavlov Institute of Physiology, St. Petersburg, Russia. Adult male Wistar rats, weighing 200 to 400 g, were obtained from the Roppolovo Vivarium. All rats were anesthetized with sodium pentobarbital/urethane and fixed in the supine position. Body temperature was maintained at 37.0° C. with a heating pad. A midline incision was made in the ventral surface of the neck and the trachea was cannulated. A guide tube (polyethylene, diameter 2.2 mm) was fixed at the midline of the hard palate and an internal infusion tube (polyethylene, diameter 0.9 mm) was then placed flush to the end of soft palate. This procedure allows stimulation of the pharyngolaryngeal region with liquids, with minimum mechanical perturbation. An esophageal tube was placed at the thoracic level to drain solutions after infusion. The infused solution was applied to the pharyngolaryngeal region at a flow rate of 1.5 pUs for 20 sec using an infusion pump, giving a total unit volume of approximately 30 μL. Stimulations were applied at intervals of 2 to 3 min, with intervals allowed for rinsing and cleansing with suction. The solutions infused were distilled water, normal saline, 0.1 N hydrochloric acid, or test compounds dissolved in normal saline. A paired unipolar electrode was inserted into unilateral mylohyoid muscle to record electromyogram (EMG) activity and the signal processed for later analysis. Swallowing movements was identified as the EMG activity and could also be visualized as laryngeal movement. The number of swallows in a fixed interval was used as the endpoint.
The test procedures were similar to those described earlier (see, e.g., Kajii et al., 2002). Also, the drainage of the esophagus was at the thoracic level to avoid mechanical disturbance of the pharynx. The infusion rate of solutions was 1.5 μL/sec for 15 to 18 sec.
The response to 0.1 N HCl infusion (30 μL over an approximately 18 second period) was highly reproducible. On average there were 36±4 swallowing movements within one min (N=7 rats). This response could be elicited in the same rat over a 2 hour period with a rest period or saline infusions at 10 min intervals.
The up-down method of Dixon [Efficient analysis of experimental observations. Ann. Rev. […] The EC50 (N=8) for DAPA-2-5 was estimated to be 0.09 mg/mL.

[2] = target: T1, TRPA1 channels (human TRPA1 gene expressed in CHO cells) (Homo sapiens, UniProt O75762); assay: TRPA1 agonist assay; assay type: cell-based; settings: maximum tested concentrations of 100 μM
T1 construct: expressed in transfected cells; host or cells: CHO cells
Description: To examine the specificity of the test compounds, further studies were conducted on TRPV1 channels (human TRPV1 gene expressed in HEK293 cells) and TRPA1 channels (human TRPA1 gene expressed in CHO cells). The test cells were Chinese Hamster Ovary (CHO) cells or Human Embyronic Kidney (HEK) 293 cells transfected with human TRPV1 or TRPA1 cDNAs.

T1 sequence (O75762 whole entry): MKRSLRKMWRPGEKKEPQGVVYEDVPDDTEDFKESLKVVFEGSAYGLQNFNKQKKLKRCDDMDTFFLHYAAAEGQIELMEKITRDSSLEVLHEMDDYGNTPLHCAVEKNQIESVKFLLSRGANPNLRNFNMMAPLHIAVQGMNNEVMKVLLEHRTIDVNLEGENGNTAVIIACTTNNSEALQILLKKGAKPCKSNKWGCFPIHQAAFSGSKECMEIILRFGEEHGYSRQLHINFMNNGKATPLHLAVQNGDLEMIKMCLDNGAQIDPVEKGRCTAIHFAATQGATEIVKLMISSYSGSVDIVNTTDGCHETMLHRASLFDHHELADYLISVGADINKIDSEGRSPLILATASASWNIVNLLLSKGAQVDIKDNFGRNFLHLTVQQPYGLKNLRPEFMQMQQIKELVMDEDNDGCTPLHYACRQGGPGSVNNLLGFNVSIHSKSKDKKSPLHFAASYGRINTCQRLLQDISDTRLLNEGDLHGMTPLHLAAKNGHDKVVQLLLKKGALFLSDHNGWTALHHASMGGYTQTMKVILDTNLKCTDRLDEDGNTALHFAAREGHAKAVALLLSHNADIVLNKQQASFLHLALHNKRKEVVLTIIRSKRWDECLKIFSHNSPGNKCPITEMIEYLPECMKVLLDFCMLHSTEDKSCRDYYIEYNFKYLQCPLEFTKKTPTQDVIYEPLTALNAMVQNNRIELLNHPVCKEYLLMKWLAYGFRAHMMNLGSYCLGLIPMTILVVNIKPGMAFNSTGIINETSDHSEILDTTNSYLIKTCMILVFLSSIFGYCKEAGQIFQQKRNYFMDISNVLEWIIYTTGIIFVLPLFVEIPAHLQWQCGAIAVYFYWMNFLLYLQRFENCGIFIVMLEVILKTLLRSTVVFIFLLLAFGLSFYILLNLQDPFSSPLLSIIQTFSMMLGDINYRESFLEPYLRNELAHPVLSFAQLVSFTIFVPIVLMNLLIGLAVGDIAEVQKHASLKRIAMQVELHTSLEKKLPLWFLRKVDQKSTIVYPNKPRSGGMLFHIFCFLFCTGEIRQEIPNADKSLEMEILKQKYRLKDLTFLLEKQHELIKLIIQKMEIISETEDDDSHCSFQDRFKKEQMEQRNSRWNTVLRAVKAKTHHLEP

`CCCCCCCP(=O)(C(C)C)C(C)C` [DAPA-1-7, 1-Di(isopropyl)-phosphinoyl-heptane] was tested, and the “distribution of the sensation (throat vs chest)” value (“distribution … (throat vs chest)” below) (oropharynx) was “spreads behind the sternum, into the chest”, the “ODT-C test results (sensation and taste in words)” value (from here on “ODT-C test results”) (mouth and throat) was “intense sensation of icy cold, but has unpleasant” and the “quality of heat abstraction sensation (peak intensity)” value (“quality of heat abstraction sensation” for short) (mouth and throat) was “cold and icy cold which was painful to the back of the throat”. For the same molecule, the “duration of cooling effect” value (mouth and throat) was “taste on the tongue: test dose of 1 to 2 mg, >15 min”, the ASHRAE equivalent (mouth and throat) was −3.5 and the “Relative Potency (suppression of swallowing)” value (“Relative Potency” below) [1] was 0.11.
In the case of `CCCCCCCCP(=O)(C(C)CC)C(C)CC` (centres unmarked) [DAPA-2-8, 1-Di(sec-butyl) phosphinoyl-octane], the “ODT-C test results” value (mouth and throat) is reported as “strong unpleasant taste”, the ASHRAE equivalent (mouth and throat) is reported as −2.7 and the “Relative Potency” value [1] is reported as 0.16.
With `CCCCCCP(=O)(C(C)CC)C(C)CC` (centres unmarked) [DAPA-2-6, 1-Di(sec-butyl) phosphinoyl-hexane] the “distribution … (throat vs chest)” value (oropharynx) was “sensations of cold in the chest; also recorded: spreads behind the sternum, into the chest”, the “ODT-C test results” value (mouth and throat) was “intense sensation of icy cold, but has unpleasant” and the “quality of heat abstraction sensation” value (mouth and throat) was “cold and icy cold which was painful to the back of the throat”. For the same molecule, the “duration of cooling effect” value (mouth and throat) was “taste on the tongue, long-lasting >15 min”, the ASHRAE equivalent (mouth and throat) was −3.2 and the “Relative Potency” value [1] was 0.05. The “inhibitory activity for swallowing relative to DAPA-2-5” value ([1]; rat, in vivo) was 5% and the “agonist activity on TRPA1 channels” value [2] was “did not exhibit any agonist activity”.
For `CCCCCP(=O)(C(C)CC)C(C)CC` (centres unmarked) [DAPA-2-5, 1-Di(sec-butyl)-phosphinoyl-pentane], the “sensation at increased dose” value (oropharynx; dose increased to 8 mg (per tablet)) was “burning penetrating quality to the sensation, but it was not aversive; also recorded: did not produce stinging, adverse tastes, or “icy cold” or cold discomfort”, the “duration of “dynamic cool” in the oropharynx” value (oropharynx; in vivo) was 5 to 15 min and 10 to 15 min and the “distribution … (throat vs chest)” value (oropharynx) was “remained localized to the throat and upper esophagus”. For the same molecule, the “ODT-C test results” value (mouth and throat) was “pleasant dynamic cool”, the “quality of heat abstraction sensation” value (mouth and throat) was “refreshing coolness and cold” and the “duration of cooling effect” value (mouth and throat) was 12 to 15 min. The ASHRAE equivalent (mouth and throat) was −2.7, the “swallows after second acid challenge” value ([1]; DAPA-2-5 0.4 mg/mL, 10 min after, 8 min after) was 9 swallows per min and the “swallows after third acid challenge” value ([1]; DAPA-2-5 0.4 mg/mL, 15 min after, after saline rinse, 22 min after) was 27 swallows/min. The “swallows after first acid challenge” value ([1]; DAPA-2-5 0.4 mg/mL, challenge 5 min later, within 3 min) was 3 swallows/min, the “Relative Potency” value [1] was 1.0 and the EC50 ([1]; Rattus norvegicus, up-down method, 50% reduction of swallowing frequency, N=4 to 8, read-out: EC50 ± S.E.M. (mg/mL), suppression of acid-induced swallowing) was 0.09 mg/mL (≈ 387 µM). For the same molecule, the “Comments (duration of inhibition)” value ([1]; rat, in vivo) was about 15 min, the “Comments (reversibility of inhibition)” value ([1]; rat, in vivo) was “reversible;” and the “agonist activity on TRPA1 channels” value [2] was “did not exhibit any agonist activity”.
For `CCCCCCCP(=O)(C(C)CC)C(C)CC` (centres unmarked) [DAPA-2-7, 1-Di(sec-butyl) phosphinoyl-heptane], the “systemic sensations of cold” value (oropharynx; higher oral doses (e.g., 5 mg or more)) was “sensations of cold on other body surfaces”, the “distribution … (throat vs chest)” value (oropharynx) was “sensations of cold in the chest; also recorded: spreads behind the sternum, into the chest” and the “ODT-C test results” value (mouth and throat) was “intense sensation of icy cold, but has unpleasant”. The “quality of heat abstraction sensation” value (mouth and throat) was “cold and icy cold which was painful to the back of the throat”, the “duration of cooling effect” value (mouth and throat) was “taste on the tongue, long-lasting >15 min” and the ASHRAE equivalent (mouth and throat) was −3.5. The “Relative Potency” value [1] was 0.45, the “Comments (duration of inhibition)” value ([1]; rat, in vivo) was >~30 min and the “Comments (reversibility of inhibition)” value ([1]; rat, in vivo) was “long-lasting;”. For the same molecule, the “agonist activity on TRPA1 channels” value [2] was “did not exhibit any agonist activity”.
In the case of `CCCCCCP(=O)(C(C)C)C(C)C` [DAPA-1-6, 1-Di(isopropyl)-phosphinoyl-hexane], the “distribution … (throat vs chest)” value (oropharynx) is reported as “sensations of cold in the chest; also recorded: spreads behind the sternum, into the chest”, the “ODT-C test results” value (mouth and throat) is reported as “intense sensation of icy cold, but has unpleasant” and the “quality of heat abstraction sensation” value (mouth and throat) is reported as “cold and icy cold which was painful to the back of the throat”. For the same molecule, the “duration of cooling effect” value (mouth and throat) was “lasting >10 min” and the ASHRAE equivalent (mouth and throat) was −3.5.
